Reference: patent US6667387B1, “HCV core peptides” (priority 1992, dated 2003)
* marks the point of attachment. Biotin = O=C1N[C@H]2[C@H](CS[C@H]2CCCCC(=O)*)N1

Columns and labels:
[1] = system: antibodies in sera from HCV-seropositive donors; experiment: ELISA with HCV antibody-positive sera (biotinylated peptides on streptavidin- or avidin-coated plates, unbiotinylated peptides coated directly); type: binding, human; settings: for PEPTIDE ELISA (O.D.): Table 12, biotinylated 20-mers; for optical density (450 nm): Table 7
Method: (§1) Where peptides were to be coated directly, stock solutions of the peptides were diluted in sodium carbonate buffer, pH 9.6 and used to coat polystyrene microtiter plates at a peptide concentration of 2 to 5 micrograms per milliliter for 1 hour at 37° C.
(§2) In cases where biotinylated peptides were to be evaluated, plates were first coated with streptavidin in sodium carbonate buffer, pH 9.6 at a concentration of 3 micrograms per milliliter for 1 hour at 37° C. The plates were then washed to remove excess, unbound protein. A working solution of the biotinylated peptide at 1 microgram per milliliter in sodium carbonate buffer was then added to the wells of the microtiter plate and incubated for 1 hours at 37° C.
(§3) Once the plates had been coated with antigen, any remaining free binding sites on the plastic were blocked with casein. After washing, a dilution of the appropriate antisera, usually 1:100, was added to the wells of the plates and incubated for 1 hour at 37° C.
(§4) After washing to remove unbound material, specific antibody binding was detected by incubating the plates with goat anti-human immunoglobulin antibodies conjugated to the enzyme horseradish peroxidase. Following removal of unbound conjugate by washing, a solution containing H2O2 and 3,3′,5,5′-tetramethylbenzidine was added.
(§5) Reactions were stopped after a suitable interval by addition of sulfuric acid. […] Absorbance measurements were made at a wavelength of 450 nanometers and all data are expressed as an optical density value at this wavelength.
The unbiotinylated peptides were adsorbed onto the wells of polystyrene microtiter plates at a concentration of 3 micrograms per milliliter.
The biotinylated peptides were bound at a concentration of 1 microgram per milliliter to streptavidin-coated microtiter plates. Sera known to contain antibodies to these peptides were used for the evaluation and were tested at a 20-fold dilution.
To investigate further the enhanced antibody recognition of biotinylated HCV peptides bound to streptavidin or avidin as compared to direct adsorption on plastic, the influence of peptide coating concentration was investigated. Three peptides (HCV peptides II, XI, and XVI) were coated in concentrations ranging from 10 nanograms per milliliter to 3 micrograms per milliliter in a volume of 200 microliters per microtiter plate well. For direct coating, the unbiotinylated versions of these peptides were used. The biotinylated versions of these peptides were used to coat wells to which streptavidin had previously been adsorbed. Sera known to contain antibodies to these peptides were used at a dilution of 1 to 100 to evaluate the magnitude of antibody binding.
(§6) Unbiotinylated HCV peptide I was coated directly onto the wells of a polystyrene ELISA plate at a concentration of 3 micrograms per milliliter in sodium carbonate buffer, pH 9.6. Biotinylated HCV peptide I was bound to streptavidin-coated wells using a stock solution containing the peptide at a concentration of 1 microgram per milliliter. The resulting plates were then incubated in parallel with a panel of sera from HCV-seropositive donors. […] Two of the sera (8326 and 8244) recognize the biotinylated version of this peptide far better than the unbiotinylated version. The specificity of the antibody reaction is also reflected by the low optical density values obtained for 5 serum samples from uninfected donors (F88, F89, F76, F136, and F6).
To determine how well biotinylated peptides would function in a mixture when bound to streptavidin- or avidin-coated plates, two mixtures were made of the N-terminally biotinylated versions of the HIV-1 peptides TM-HIV-1 (hereabove referred to as 1a.1) and V3-nm (hereabove referred to as 1b.4), the HIV-2 peptide TM-HIV-2 (hereabove referred to as 2a), and the hepatitis C virus peptides II, IX, and XVIII. […]

[2] = ELISA with seronegative / negative control sera (specificity); type: binding, human; settings: Table 7
Method: as §1, §2, §3, §4, §5, §6
To determine how well biotinylated peptides would function in a mixture when bound to streptavidin- or avidin-coated plates, two mixtures were made of the N-terminally biotinylated versions of the HIV-1 peptides TM-HIV-1 (hereabove referred to as 1a.1) and V3-nm (hereabove referred to as 1b.4), the HIV-2 peptide TM-HIV-2 (hereabove referred to as 2a), and the hepatitis C virus peptides II, IX, and XVIII. Mixture A contained each of the six biotinylated peptides at a concentration of 1 microgram per milliliter (6 micrograms per milliliter peptide, total) while in mixture B, each peptide was present at a concentration of 0.1 microgram per milliliter (0.6 microgram per milliliter peptide, total). The individual peptides were coated at a concentration of 1 microgram per milliliter. For purposes of comparison, mixtures A and B were also coated directly onto the wells of a microtiter plate. Samples from HIV-1, HIV-2, and HCV-seropositive donors were tested and compared to sera from seronegative blood donors. A cut-off absorbance value of 0.250 was used to determine whether a reaction was positive or negative. Absorbance values equal or greater than 0.250 were considered positive while absorbance values below this value were considered negative.

[3] = serum 6378, HCV antibody-positive
[4] = serum 8242, HCV antibody-positive
[5] = serum 8243, HCV antibody-positive
[6] = serum 8244, HCV antibody-positive
[7] = serum 8248, HCV antibody-positive
[8] = serum 8316, HCV antibody-positive
[9] = serum 8318, HCV antibody-positive
[10] = serum 8320, HCV antibody-positive
[11] = serum 8326, HCV antibody-positive
[12] = serum 8329, HCV antibody-positive
[13] = serum 8330, HCV antibody-positive
[14] = serum 8333, HCV antibody-positive
[15] = serum 8334, HCV antibody-positive
[16] = serum 8336, HCV antibody-positive
[17] = serum 8344, HCV antibody-positive
[18] = serum 8364, HCV antibody-positive
[19] = serum 8374, HCV antibody-positive
[20] = serum 8387, HCV antibody-positive
[21] = serum F8, HCV antibody-negative
[22] = serum F76, HCV antibody-negative
[23] = serum F88, HCV antibody-negative
[24] = serum F89, HCV antibody-negative
[25] = serum F136, HCV antibody-negative

Substance	PEPTIDE ELISA (O.D.) ([1]; serum 0843)	PEPTIDE ELISA (O.D.) ([1]; serum 8240)	PEPTIDE ELISA (O.D.) ([1]; serum 8241)	PEPTIDE ELISA (O.D.) ([1]; serum 8242)	PEPTIDE ELISA (O.D.) ([1]; serum 8332)	PEPTIDE ELISA (O.D.) ([1]; serum 8339)	PEPTIDE ELISA (O.D.) ([1]; serum 8350)	PEPTIDE ELISA (O.D.) ([1]; serum 8377)	PEPTIDE ELISA (O.D.) ([1]; serum 8378)	PEPTIDE ELISA (O.D.) ([1]; serum 8388)	optical density (450 nm) [1, 3]	optical density (450 nm) [1, 4]	optical density (450 nm) [1, 5]	optical density (450 nm) [1, 6]	optical density (450 nm) [1, 7]	optical density (450 nm) [1, 8]	optical density (450 nm) [1, 9]	optical density (450 nm) [1, 10]	optical density (450 nm) [1, 11]	optical density (450 nm) [1, 12]	further results
Core-7: biotinylated 20-mer, HCV core aa 37-56, SEQ ID NO:41	1.251	1.529	0.448	0.632	1.387	0.166	0.357	0.221	1.089	0.970											
H2N-Met-Ser-Thr-Ile-Pro-Lys-Pro-Gln-Arg-Lys-Thr-Lys-Arg-Asn-Thr-Asn-Arg-Arg-Pro-Gln-CONH2 (H-MSTIPKPQRKTKRNTNRRPQ-NH2) [HCV peptide I]											2.161	1.367	2.211	0.077	2.042	2.394	2.385	2.760	0.525	2.633	optical density (450 nm) [1, 13]: 1.985; optical density (450 nm) [1, 14]: 2.143; optical density (450 nm) [1, 15]: 2.271; optical density (450 nm) [1, 16]: 1.558; optical density (450 nm) [1, 17]: 1.878; optical density (450 nm) [1, 18]: 2.705; optical density (450 nm) [1, 19]: 1.070; optical density (450 nm) [1, 20]: 1.427; optical density (450 nm) [2, 21]: 0.000; optical density (450 nm) [2, 22]: 0.000; optical density (450 nm) [2, 23]: 0.000; optical density (450 nm) [2, 24]: 0.017; optical density (450 nm) [2, 25]: 0.006
H2N-Met-Ser-Thr-Ile-Pro-Lys-Pro-Gln-Arg-Lys-Thr-Lys-Arg-Asn-Thr-Asn-Arg-Arg-Pro-Gln-Gly-Gly-Lys (Bio)-CONH2 (H-MSTIPKPQRKTKRNTNRRPQGGK(Biotin)-NH2; SMILES CC[C@H](C)[C@H](NC(=O)[C@@H](NC(=O)[C@H](CO)NC(=O)[C@@H](N)CCSC)[C@@H](C)O)C(=O)N1CCC[C@H]1C(=O)N[C@@H](CCCCN)C(=O)N1CCC[C@H]1C(=O)N[C@@H](CCC(N)=O)C(=O)N[C@@H](CCCNC(=N)N)C(=O)N[C@@H](CCCCN)C(=O)N[C@H](C(=O)N[C@@H](CCCCN)C(=O)N[C@@H](CCCNC(=N)N)C(=O)N[C@@H](CC(N)=O)C(=O)N[C@H](C(=O)N[C@@H](CC(N)=O)C(=O)N[C@@H](CCCNC(=N)N)C(=O)N[C@@H](CCCNC(=N)N)C(=O)N1CCC[C@H]1C(=O)N[C@@H](CCC(N)=O)C(=O)NCC(=O)NCC(=O)N[C@@H](CCCCNC(=O)CCCC[C@@H]1SC[C@@H]2NC(=O)N[C@@H]21)C(N)=O)[C@@H](C)O)[C@@H](C)O) [HCV peptide I carboxy-biotinylated]											2.531	2.389	2.541	1.399	2.493	2.541	2.404	2.762	1.775	2.672	optical density (450 nm) [1, 13]: 2.651; optical density (450 nm) [1, 14]: 2.545; optical density (450 nm) [1, 15]: 2.549; optical density (450 nm) [1, 16]: 2.016; optical density (450 nm) [1, 17]: 2.010; optical density (450 nm) [1, 18]: 2.705; optical density (450 nm) [1, 19]: 2.151; optical density (450 nm) [1, 20]: 2.628; optical density (450 nm) [2, 21]: 0.000; optical density (450 nm) [2, 22]: 0.022; optical density (450 nm) [2, 23]: 0.026; optical density (450 nm) [2, 24]: 0.001; optical density (450 nm) [2, 25]: 0.002
HCV-7: biotinylated 20-mer, HCV NS4 aa 1724-1743, SEQ ID NO:55	2.251	1.963	0.968	1.252	0.945	0.041	0.598	1.829	2.006	2.504											antibody binding to the 20-mers ([1]; serum 8241): Moderate binding
NS5-25: biotinylated 20-mer, HCV NS5 aa 2263-2282, SEQ ID NO:59	0.062	0.054	0.050	0.260	0.047	1.495	0.069	1.092	0.279	0.055											
